Common to all, as to assay type: cell-based
Series [1] relates to Trypanosoma b. brucei Squib 427. Nature of the series: In vitro anti-Trypanosoma brucei brucei activity. Conditions: read-out: T. bruc. IC50. As for the experimental part: In Vitro Anti-Trypanosoma brucei brucei Activity:
After incubation in a humidified atmosphere (37° C., 5% CO2) for 72 h, resazurin was added for another 24 h and parasite growth was assessed fluorimetrically (λex 550 nm, λem 590 nm). […] Suramin was included as reference drug.

The test system of series [2] is T. rhodesiense (strain STIB-900). Description: In vitro anti-Trypanosoma brucei rhodesiense activity. The settings on record: read-out: T. rhod. IC50. The procedure: In Vitro Anti-Trypanosoma brucei rhodesiense Activity
T. rhodesiense (strain STIB-900) was maintained in HMI-9-medium, supplemented with 10% heat-inactivated FBS. Assays were performed in 96-well microtiter plates, each well containing 10 μL of the extract dilution together with 190 μL of the parasite suspension (2×10^4 parasites/mL). After incubation in a humidified atmosphere (37° C., 5% CO2) for 72 h, resazurin was added for another 6 h and parasite growth was assessed fluorimetrically (λex 550 nm, λem 590 nm). […] Suramin was included as reference drug.

Series [3] deals with Trypanosoma cruzi, Tulahuen CL2, β galactosidase strain. Description: In vitro anti-Trypanosoma cruzi activity. Conditions: read-out: T. cruz. IC50. The procedure:
In Vitro Anti-Trypanosoma cruzi Activity
All cultures and assays were conducted under a humidified atmosphere (37° C., 5% CO2). […] The change in color was measured spectrophotometrically at 540 nm after 4 h at 37° C. […] Benznidazole was included as reference drug.

The subject of series [4] is Leishmania infantum MHOM/MA (BE)/67. Nature of the series: In vitro anti-Leishmania infantum activity. The settings on record: read-out: L. inf. IC50.
Experimental: In Vitro Anti-Leishmania infantum Activity
Leishmania infantum MHOM/MA (BE)/67 was maintained in the golden hamster and spleen amastigotes were collected for preparing infection inocula. Primary peritoneal mouse macrophages were used as host cells and collected 48 h after peritoneal stimulation with a 2% potato starch suspension. […] After incubation for 120 h in a humidified atmosphere (37° C., 5% CO2), total parasite burdens were microscopically assessed after Giemsa staining. The results were expressed as % reduction in parasite burden compared to untreated control wells and IC50 values were calculated. The extracts were tested using five fourfold dilutions starting with 64 μg/mL.
The test system of a further series is P. falciparum. Description: In vitro anti-Plasmodium falciparum activity. Conditions: read-out: Pf-K1 IC50.
Series [5] has as its system Human lung fibroblast MRC-5SV2 cells. Nature of the series: Cytotoxicity assay on MRC-5SV2 cells (resazurin). The procedure:
Assays were performed in 96-well microtiter plates, each well containing 1×10^4 cells. […] After incubation for 72 h in a humidified atmosphere (37° C., 5% CO2) and addition of resazurin, the cell viability was assessed fluorimetrically (λex 550 nm, λem 590 nm). The results were expressed as % reduction in cell growth/viability compared to untreated control wells and IC50 values were determined. Tamoxifen was included as reference drug.
On the technique in general: The colour change of resazurin is a common sign of viable cells or microbes.

For a further series, the system named is HIV-1 BaL. Description: TZM-bl assay, anti-HIV-1 activity. The settings on record: read-out: EC50 (50% effective concentration), anti-HIV-1 activity; TZM-bl cells. The procedure: The JC53-BL cell line, also known as the TZM-bl cell line (NIH AIDS Research and Reference Reagent Program, Germantown, USA), was used for the evaluation of anti-HIV activity. […] The resulting cell suspension was washed with an equivalent amount of TZM-bl medium and subsequently seeded in a T75 culture flask (Greiner Bio-One, Germany) at 10^6 cells in 20 mL medium.
The antiviral activity of the newly designed compounds was measured by pre-incubating ten thousand TZM-bl cells (at 10^5 cells/mL in culture medium supplemented with 30 μg/mL DEAE dextran) in a 96-well plate for 30 minutes at 37° C., 5% CO2 in the presence or absence of serial dilutions of the respective compound. Subsequently, 200 TCID50 of HIV-1 BaL was added to each well and cultures were incubated for 48 hours before quantifying luciferase activity, using a TriStar LB941 luminometer (Berthold Technologies GmbH & Co. KG, Bad Wildbad, Germany). Each condition was evaluated in triplicate wells and in at least two independent experiments. The antiviral activity of the compound was expressed as the percentage of viral inhibition compared to the untreated controls and subsequently plotted against the compound concentration.

A further series relates to TZM-bl cells. Nature of the series: WST-1 cytotoxicity assay. The settings on record: read-out: CC50 (50% cytotoxic concentration). From the text: The Water Soluble Tetrazolium-1 (WST-1) Cell Proliferation Assay is a colorimetric assay for the measurement of cell proliferation and viability. The assay is based on the cleavage of the tetrazolium salt WST-1 (4-[3-(4-iodophenyl)-2-(4-nitrophenyl)-2H-5-tetrazolio]-1,3-benzene disulfonate) to a formazan dye by a complex cellular mechanism. This bioreduction is largely dependent on the glycolytic production of NAD(P)H in viable cells. Therefore, the amount of formazan dye formed correlates directly to the number of viable cells in the culture, and can be quantified by measuring the absorbance at 450 nm in a multiwell plate reader. The greater the number of viable cells, the greater the amount of formazan dye produced following the addition of WST-1. Cytotoxicity of each compound was evaluated using this WST-1 viability assay, according to the manufacturer's instructions (Roche, Vilvoorde, Belgium).
Briefly, ten thousand TZM-bl cells were seeded in a 96-well plate and cultured for 2 days in the presence of a serial dilution of compound. After this 48 h exposure, Cell Proliferation Reagent, WST-1, was added and absorbance at 450 nm was quantified after 90 min using a microplate reader (BioRad, Tokio, Japan). Each compound was tested in three replicate wells and in at least two independent experiments.

Experimental for P. falciparum: In Vitro Anti-Plasmodium falciparum Activity
All cultures and assays were conducted under a humidified atmosphere (37° C., 4% CO2, 3% O2 and 93% N2) with the assay being an adaptation of the procedure described by Desjardins et al. (12). Assays were performed in 96-well microtiter plates, each well containing 10 μL of the watery extract dilutions together with 190 μL of the malaria parasite inoculum (1% parasitemia, 2% hematocrit). After incubation for 72 h at 37° C., the plates were frozen and stored at −20° C. Upon thawing, 20 μL of each well was transferred into another plate together with 100 μL Malstat® reagent and 20 μL of a 1/1 mixture of PES (phenazine ethosulphate, 2 mg/mL) and NBT (Nitro Blue Tetrazolium Grade III, 0.1 mg/ml). […] The results were expressed as % reduction in parasitemia compared to control wells. The extracts were tested using five 4-fold dilutions starting with 64 μg/mL. Chloroquine was included as reference drug.

The term IC50 denotes the concentration needed to halve the response being measured. As for `Cc1cc(C)c(Nc2nc(Nc3ccc(C#N)cc3)nc(Nc3ccc(Nc4nc(Nc5ccc(C#N)cc5)nc(Nc5c(C)cc(C)cc5C)n4)cc3)n2)c(C)c1` [T12, 4,4′-((6,6′-(1,4-phenylenebis(azanediyl))bis(4-(mesitylamino)-1,3,5-triazine-6,2-diyl))bis(azanediyl))dibenzonitrile], the concentration for half-maximal inhibition (IC50) in series [1] is 530 nM; in series [2], 20 nM; in series [3], > 64000 nM; in series [4], > 64000 nM; in the series on P. falciparum it was > 64000 nM; in series [5] (human cell line MRC5), > 64000 nM. Besides, the “cytotoxicity in comparison with monomer I5” value in series [5] is listed as “no cytotoxicity”. For the same compound, the EC50 with HIV-1 BaL turned out to be 167 nM. Besides, the CC50 with TZM-bl cells is > 100000 nM.

Source of the values: patent US20140323488A1, “DISUBSTITUTED TRIAZINE DIMERS FOR TREATMENT AND/OR PREVENTION OF INFECTIOUS DISEASES” (Universiteit Antwerpen, priority 2011, published 2014).
